Where no end group is shown, it is not given here.
Key:
human UCN II promoter [1] = test: CRF induced expression from UCN II promoter fragments in CATH.a cultures; assay type: cell-based; settings: 1 μM CRF, 22 h
Source text: (§1) The above constructs containing the human UCN II promoter fragments placed upstream of the firefly luciferase gene can be used to transfect immortalized cell lines. The constructs can be transfected into CHO-K1 cell lines using Lipofectamine 2000 (Invitrogen Life Technologies). Primary cultures of the central nervous system, as well as additional immortalized cell lines, are also appropriate for these transfections. To control for transfection efficiency, the cells can also be co-transfected with the pRL-TK vector (Promega). The pRL-TK vector contains the Renilla luciferase gene downstream of the herpes simplex virus thymidine kinase promoter, a promoter which provides low to moderate levels of expression. Cell lysates can be assayed for total protein using the BCA assay (Pierce, Rockford, Ill.) to standardize for the protein extraction. The level of reporter gene expression from a standardized amount of cell extract can be quantified by measuring luciferase activity using a luminometer (EG&G Wallac, Gaithersburg, Md.) and the dual-luciferase reporter assay system (Promega). Firefly luciferase activity reflects UCN II promoter activity and Renilla luciferase activity can be used to normalize data between experiments.
Using the methods described previously, CATH.a cultures were transiently transfected with the UCN II promoter constructs. Immediately following transfection equal numbers of cultures (N=4 per group) were treated with either 1 μM CRF or with vehicle. Twenty-two hours following treatment, the cultures were harvested and assayed for luciferase activity (see FIG. 8). CATH.a cultures are known to express CRF receptors and both CRF and UCN II are known ligands for the receptors. […] The goal of the present experiment was to determine if CRF receptor-dependent second messenger system activation affected UCN II gene expression.

human UCN II promoter [2] = test: Dexamethasone induced expression from UCN II promoter fragments in CATH.a cultures; assay type: cell-based, mouse; settings: 20 μM dexamethasone, 22 h
Source text: as §1
In the following experiments, we confirmed the dexamethasone treatment results in the CATH.a cell line. Using the methods described previously, CATH.a cultures were transiently transfected with the UCN II promoter constructs. Immediately following transfection equal numbers of cultures (N=12 per group) were treated with either 20 μM dexamethasone or were given vehicle. Twenty-two hours following treatment, the cultures were harvested and assayed for luciferase activity (see FIG. 7).

human UCN II promoter [3] = test: Dexamethasone induced expression from UCN II promoter fragments in CHO-K1 cultures; assay type: cell-based, hamster; settings: 20 μM dexamethasone, 22 h
Source text: as §1
Using the methods described previously, CHO-K1 cultures were transiently transfected with the UCN II promoter constructs. […]

Row | Molecule | expression within the remaining constructs vs vehicle (human UCN II promoter [1]) | increase in expression over vehicle, −1426 construct (human UCN II promoter [1]) | increase in expression over vehicle, −1987 construct (human UCN II promoter [1]) | expression within the −1987 and −1426 constructs vs vehicle (human UCN II promoter [1]; P<0.05 for −1987, P<0.001 for −1426, preliminary data) | decrease in expression compared to vehicle, −1426 construct (human UCN II promoter [2]) | decrease in expression compared to vehicle, −1987 construct (human UCN II promoter [2]) | expression within the remaining constructs vs vehicle (human UCN II promoter [2]) | decrease in expression compared to vehicle, −1426 construct (human UCN II promoter [3]) | expression within the remaining constructs vs vehicle (human UCN II promoter [3])
1 | corticotropin-releasing factor (SEEPPISLDLTFHLLREVLEMARAEQLAQQAHSNRKLMEII; ends and bridges not checked; UniProt P06850 154-194, looked up) [CRF, neurotransmitter peptide, ligand of CRF receptors] | no significant effect | 52% | 29% | significantly increased expression | – | – | – | – | –
2 | C[C@@H]1C[C@H]2[C@@H]3CCC4=CC(=O)C=C[C@]4(C)[C@@]3(F)[C@@H](O)C[C@]2(C)[C@@]1(O)C(=O)CO [dexamethasone] | – | – | – | – | 39% | 29% | no effect | 15% | no significant effect

From US7087385B2, “Promoter sequences for urocortin II and the use thereof” (Wisconsin Alumni Research Foundation, priority 2002, dated 2006)
